Like-named read-outs stand apart in the source and are kept apart here.
Legend:
human Slo3 = target: T1, human Slo3 (Homo sapiens, UniProt A8MYU2); assay: Whole-cell patch-clamp of Slo3 currents in CHO cells co-expressing human Slo3 and LRRC52; format: cell-based
T1 construct: expressed in transfected cells; host or cells: CHO cells, transient co-transfection with pcDNA3.1(+) vectors
T1 sequence (A8MYU2 1-1149): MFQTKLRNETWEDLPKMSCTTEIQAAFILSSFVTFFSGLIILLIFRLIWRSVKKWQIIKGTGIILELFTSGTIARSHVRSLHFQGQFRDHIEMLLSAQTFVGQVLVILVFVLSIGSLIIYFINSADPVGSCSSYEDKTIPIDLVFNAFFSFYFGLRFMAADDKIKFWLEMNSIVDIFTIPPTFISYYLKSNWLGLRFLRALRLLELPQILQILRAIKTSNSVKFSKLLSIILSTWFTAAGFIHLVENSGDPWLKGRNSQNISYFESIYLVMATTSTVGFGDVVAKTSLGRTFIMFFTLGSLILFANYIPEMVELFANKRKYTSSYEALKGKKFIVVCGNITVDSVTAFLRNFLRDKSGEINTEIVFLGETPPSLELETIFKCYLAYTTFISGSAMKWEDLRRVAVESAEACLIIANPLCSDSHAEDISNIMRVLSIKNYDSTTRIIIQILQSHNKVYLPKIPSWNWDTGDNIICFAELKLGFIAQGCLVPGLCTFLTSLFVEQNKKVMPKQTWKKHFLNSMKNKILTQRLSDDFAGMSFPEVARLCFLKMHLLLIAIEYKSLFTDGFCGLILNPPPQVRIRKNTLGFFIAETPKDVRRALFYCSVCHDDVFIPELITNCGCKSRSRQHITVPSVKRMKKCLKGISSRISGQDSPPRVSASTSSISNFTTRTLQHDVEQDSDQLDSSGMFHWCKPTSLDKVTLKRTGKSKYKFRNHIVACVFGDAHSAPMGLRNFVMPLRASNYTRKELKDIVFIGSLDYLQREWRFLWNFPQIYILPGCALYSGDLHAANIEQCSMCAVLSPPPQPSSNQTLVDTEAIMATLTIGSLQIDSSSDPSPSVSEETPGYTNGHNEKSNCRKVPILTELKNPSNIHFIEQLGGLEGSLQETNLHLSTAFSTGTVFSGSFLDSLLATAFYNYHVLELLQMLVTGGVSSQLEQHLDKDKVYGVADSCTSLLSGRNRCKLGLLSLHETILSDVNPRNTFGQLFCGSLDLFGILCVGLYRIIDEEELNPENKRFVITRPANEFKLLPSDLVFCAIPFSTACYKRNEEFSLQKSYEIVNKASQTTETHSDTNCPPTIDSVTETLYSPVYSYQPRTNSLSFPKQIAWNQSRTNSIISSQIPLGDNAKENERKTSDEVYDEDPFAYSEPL
T1 sequence (Q8N7C0 24-313 partner): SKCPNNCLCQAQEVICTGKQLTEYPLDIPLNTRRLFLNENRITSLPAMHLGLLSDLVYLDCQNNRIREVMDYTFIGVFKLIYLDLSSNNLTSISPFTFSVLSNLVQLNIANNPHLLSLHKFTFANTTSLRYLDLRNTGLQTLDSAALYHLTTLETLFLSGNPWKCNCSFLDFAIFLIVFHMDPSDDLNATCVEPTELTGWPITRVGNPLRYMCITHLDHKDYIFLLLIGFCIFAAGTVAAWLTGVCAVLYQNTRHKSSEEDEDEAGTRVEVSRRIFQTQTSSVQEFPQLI

CatSper = details: relative to progesterone; cited from earlier work
[1] = dose-response, Hill fit, mean ± SD, read-out: IC50 for inhibition of Slo3
[2] = 50 µM prostaglandin, n = 3, in range of current rundown

Compound	decrease of Slo3 current amplitude (human Slo3; 50 μM steroid, +100 mV, n ≥ 3)	also measured
CC(=O)C1(O)CCC2C3CCC4=CC(=O)CCC4(C)C3CCC21C (stereo not drawn) [17α-hydroxyprogesterone]	significantly decreased	IC50 (human Slo3; [1]): 27 ± 10 µM
CCCCC/C=C\C/C=C\C/C=C\C/C=C\CCCC(=O)O [arachidonic acid]		effect on Slo3 currents (human Slo3; 3 µM arachidonic acid, n = 7): did not affect
C[C@]12CC[C@H]3[C@@H](CCC4=CC(=O)CC[C@@]43C)[C@@H]1CC[C@@H]2O [testosterone]	significantly decreased	IC50 (human Slo3): 17 ± 14 µM
C[C@]12CC[C@@H]3c4ccc(O)cc4CC[C@H]3[C@@H]1CC[C@@H]2O [estradiol]	significantly decreased	fold less potent than progesterone to activate CatSper (CatSper): around 100 fold; IC50 (human Slo3): 8.9 ± 4.4 µM
C[C@]12CCC(=O)C=C1CC[C@@H]1[C@@H]2C(=O)C[C@@]2(C)[C@H]1CC[C@]2(O)C(=O)CO [cortisone]	≤ 18%	
CC(=O)[C@H]1CC[C@H]2[C@@H]3CC=C4C[C@@H](O)CC[C@]4(C)[C@H]3CC[C@]12C [pregnenolone]	≤ 18%	
C[C@]12C[C@H](O)[C@H]3[C@@H](CCC4=CC(=O)CC[C@@]43C)[C@@H]1CC[C@@H]2C(=O)CO [corticosterone]	significantly decreased	IC50 (human Slo3; [1]): 58 ± 11 µM
CC(=O)[C@H]1CC[C@H]2[C@@H]3CCC4=CC(=O)CC[C@]4(C)[C@H]3CC[C@]12C [progesterone]	significantly decreased	IC50 (human Slo3; [1]): 5.2 ± 2.9 µM
CCCCC[C@H](O)/C=C/[C@H]1[C@H](O)CC(=O)[C@@H]1CCCCCCC(=O)O [PGE1, prostagladin E1]		decrease of Slo3 current amplitude (human Slo3; [2]): 18 ± 7%
CCCCC[C@H](O)/C=C/[C@H]1[C@H](O)CC(=O)[C@@H]1C/C=C\CCCC(=O)O [PGE2, prostaglandin E2]		decrease of Slo3 current amplitude (human Slo3; [2]): 7 ± 7%
CC(=O)[C@@]1(O)CC[C@H]2[C@@H]3CC=C4C[C@@H](O)CC[C@]4(C)[C@H]3CC[C@@]21C [17α-hydroxypregnenolone]	≤ 18%	
C[C@]12CC[C@@H]3c4ccc(O)cc4CC[C@H]3[C@@H]1CCC2=O [estrone]	≤ 18%	
[Zn+2] [Zn^2+]		decrease of Slo3 current amplitude (human Slo3; 1 mM Zn^2+, n = 4, in range of current rundown): 14 ± 13%
C[C@]12CC[C@H]3[C@@H](CC=C4C[C@@H](O)CC[C@@]43C)[C@@H]1CC[C@@H]2O [androstenediol]	≤ 18%	
C[C@]12CC[C@H](O)CC1=CC[C@@H]1[C@@H]2CC[C@]2(C)C(=O)CC[C@@H]12 [DHEA, dehydroepiandrosterone]	significantly decreased	IC50 (human Slo3): 41 ± 4 µM
C[C@]12CCC(=O)C=C1CC[C@@H]1[C@@H]2CC[C@]2(C)C(=O)CC[C@@H]12 [androstenedione]	≤ 18%	
